Assays:
T. rubrum = assay: Ex vivo onychomycosis porcine nail model; parameters: species or system Trichophyton rubrum on porcine nails; key to Summary of significance, fungal load: * p<0.05; ** p<0.01; *** p<0.001; **** p<0.0001; ns: non-significant; settings: for Mean rank diff. of fungal load: T. rubrum nails
Method: For microconidia preparation, T. rubrum was inoculated on potato dextrose agar containing 0.025% Sabouraud dextrose broth (SDB) and 1.0% penicillin-streptomycin. After a 10-day incubation at 28 ° C, the plates were flooded with PBS, which was then aspirated and filtered through a sterilized cotton gauze to recover microconidia (Ma et al., 2022).
An ex vivo onychomycosis model was established as previously described (Quatrin et al., 2020) with modifications. Pig hooves with exposed toenails were processed into ~1 cm^2-sized individual toenail samples with a band saw, washed with 70% ethyl alcohol and sterilized water, and inoculated with a microconidia suspension of T. rubrum (~10^7 conidia mL^−1) for 3 h. Samples were placed in a Petri dish containing moist sterilized paper and incubated at 28 ° C for 10 days. Fungal growth was confirmed by sample resuspension in PBS and plating on PDA containing 0.025% SDB and 1% penicillin-streptomycin. Infected samples were then treated with (1) 1% DMSO plus light, (2) monotherapy with MM 1 alone (0.77% in DMSO) plus light, (3) monotherapy with conventional antifungal (three drops (Quatrin et al., 2020) of Ciclopirox Topical Suspension USP, 0.77% “Lotion”, Leading Pharma, LLC, NY, USA, or Ciclopirox Topical Solution, 8% “Lacquer”, Perrigo New York Inc., NY, USA), or (4) combination therapy with MM 1 plus light and conventional antifungal. Each treatment group consisted of three samples. After 30 min, samples in the irradiated treatment groups were transferred to 24-well plates (Corning-Costar Corp., Corning, NY, USA) and irradiated with 405-nm light (87.6 J cm^−2). Treatment was repeated every 24 h for 5 days. Afterward, the samples were transferred to tubes containing PBS plus 1% penicillin-streptomycin, vortexed, and sonicated (Quatrin et al., 2020). Triplicate aliquots of this suspension were inoculated on PDA plates containing 1% penicillin-streptomycin. After a 10-day incubation at 28 ° C, CFU numbers were determined. Untreated samples served as positive controls.

[1] = tested on: persister cells of E. coli; assay: Persister eradication, E. coli; format: cell-based, Escherichia coli; settings: 1×MIC, 405 nm
Method: Persister cells of E. coli were prepared by adding ampicillin (100 μg mL^−1) to exponential-phase cells (OD600 of ≈0.8) followed by continuous agitation for another 3 b, as previously described (Keren et al., 2004). In the case of S. aureus, almost all stationary-phase are considered to be persistent (Keren et al., 2004). S. aureus cells were grown at 37 ° C and 220 rpm in LB broth to an OD600 of 0.3. Cells were then diluted 1:1000 in 25 mL LB and grown for 16 h at 37 ° C and 220 rpm in 250 mL flasks. […] At specified time points (0, 1, 2, 3, 4 and 5, 10 and 15 min), 50-μL aliquots were removed, serially diluted and spot-plated onto LB agar plates to determine colony-forming units per mL (CFU mL^−1). Only dilutions that yielded 10-100 colonies were counted. Results were expressed as log (N/NO) whereby N is the CFU mL^−1 at each irradiation time point and NO is the initial CFU mL^−1 of the corresponding sample. […].

E. coli transcripts = assay: GO enrichment analysis of transcripts more abundant in DMSO controls than in MM 1-treated E. coli; format: cell-based, Escherichia coli; settings: more abundant in DMSO controls than at 0.5×MIC, 405 nm
Method: Gene ontology (GO) enrichment analysis of the transcripts displaying significant differences (p<0.05) in abundance between MM- and DMSO-treated cells was performed using Panther (http://pantherdb.org/) using the Fisher's Exact test. Results were corrected for the false discovery rate (FDR).

[2] = tested on: persister cells of P. aeruginosa; assay: Persister eradication, P. aeruginosa; format: cell-based, Pseudomonas aeruginosa; settings: 1×MIC, 405 nm
[3] = cytosolic small ribosomal subunit
[4] = integral component of plasma membrane
[5] = intracellular anatomical structure
[6] = intracellular non-membrane-bounded organelle
[7] = intrinsic component of membrane
[8] = intrinsic component of plasma membrane
[9] = plasma membrane protein complex
[10] = plasma membrane respiratory chain complex I

In the case of `C[C@@H]1Cc2ccc3ccccc3c2/C1=C1\c2ccccc2Sc2cc(NCCN(C)C)ccc21` [MM 1, N^1N^1-dimethyl-N^2-(9-(2-methyl-2,3-dihydro-1H-cyclopenta[a]naphthalen-1-ylidene)-9H-thioxanthen-3-yl) ethane-1,2-diamine], the “Summary of significance, fungal load” value (T. rubrum; 1% DMSO vs treatment) is reported as “** (** p<0.01)”, the “Mean rank diff. of fungal load” value (T. rubrum; 1% DMSO vs treatment) is reported as 28.00 and the “Summary of significance, fungal load” value (T. rubrum; CPX Lacquer vs treatment) is reported as “ns”. For the same compound, the “Mean rank diff. of fungal load” value (T. rubrum; CPX Lacquer vs treatment) was 14.33, the “Summary of significance, fungal load” value (T. rubrum; CPX Lotion vs treatment) was “ns” and the “Mean rank diff. of fungal load” value (T. rubrum; CPX Lotion vs treatment) was 14.67. For the same compound, the log reduction at 7700 µg/mL (T. rubrum; Trichophyton rubrum, topical, T. rubrum, 0.77% (w/v) MM 1 + 405-nm light, vs DMSO controls, read-out: reduction of fungal burden in porcine nails) was roughly 2, the “time to reduce persister cells to limit of detection” value [1] was 10 min and the “Fold Enrichment” value (E. coli transcripts; NADH dehydrogenase complex) was 3.02. The “transcripts significantly enriched in DMSO controls, #” value (“transcripts significantly enriched” for short) (E. coli transcripts; NADH dehydrogenase complex) was 15, the “Fold Enrichment” value (E. coli transcripts; Unclassified (−)) was “.71” and the “transcripts significantly enriched” value (E. coli transcripts; Unclassified (−)) was 300. For the same compound, the “Fold Enrichment” value (E. coli transcripts; catalytic complex) was 1.51, the “transcripts significantly enriched” value (E. coli transcripts; catalytic complex) was 129 and the “Fold Enrichment” value (E. coli transcripts; cell periphery) was 1.15. The “transcripts significantly enriched” value (E. coli transcripts; cell periphery) was 454, the “Fold Enrichment” value (E. coli transcripts; cellular anatomical entity) was 1.14 and the “transcripts significantly enriched” value (E. coli transcripts; cellular anatomical entity) was 969. The “Fold Enrichment” value (E. coli transcripts; cytoplasm) was 1.18, the “transcripts significantly enriched” value (E. coli transcripts; cytoplasm) was 487 and the “Fold Enrichment” value (E. coli transcripts; cytosol) was 1.28. For the same compound, the “transcripts significantly enriched” value (E. coli transcripts; cytosol) was 394, the “transcripts significantly enriched” value (E. coli transcripts; cytosolic large ribosomal subunit) was 25 and the “Fold Enrichment” value (E. coli transcripts; cytosolic ribosome) was 2.64. For the same compound, the “transcripts significantly enriched” value (E. coli transcripts; cytosolic ribosome) was 44, the “Fold Enrichment” value (E. coli transcripts; [3]) was 2.60 and the “transcripts significantly enriched” value (E. coli transcripts; [3]) was 19. For the same compound, the “Fold Enrichment” value (E. coli transcripts; integral component of membrane) was 1.20, the “transcripts significantly enriched” value (E. coli transcripts; integral component of membrane) was 386 and the “Fold Enrichment” value (E. coli transcripts; [4]) was 1.27. The “transcripts significantly enriched” value (E. coli transcripts; [4]) was 216, the “Fold Enrichment” value (E. coli transcripts; [5]) was 1.20 and the “transcripts significantly enriched” value (E. coli transcripts; [5]) was 509. For the same compound, the “Fold Enrichment” value (E. coli transcripts; [6]) was 2.09, the “transcripts significantly enriched” value (E. coli transcripts; [6]) was 61 and the “Fold Enrichment” value (E. coli transcripts; intracellular organelle) was 2.01. The “transcripts significantly enriched” value (E. coli transcripts; intracellular organelle) was 63, the “Fold Enrichment” value (E. coli transcripts; [7]) was 1.19 and the “transcripts significantly enriched” value (E. coli transcripts; [7]) was 392. For the same compound, the “Fold Enrichment” value (E. coli transcripts; [8]) was 1.29, the “transcripts significantly enriched” value (E. coli transcripts; [8]) was 225 and the “Fold Enrichment” value (E. coli transcripts; large ribosomal subunit) was 2.67. The “transcripts significantly enriched” value (E. coli transcripts; large ribosomal subunit) was 25, the “Fold Enrichment” value (E. coli transcripts; membrane protein complex) was 1.55 and the “transcripts significantly enriched” value (E. coli transcripts; membrane protein complex) was 98. The “Fold Enrichment” value (E. coli transcripts; membrane) was 1.16, the “transcripts significantly enriched” value (E. coli transcripts; membrane) was 470 and the “Fold Enrichment” value (E. coli transcripts; non-membrane-bounded organelle) was 1.68. The “transcripts significantly enriched” value (E. coli transcripts; non-membrane-bounded organelle) was 64, the “Fold Enrichment” value (E. coli transcripts; organelle) was 1.65 and the “transcripts significantly enriched” value (E. coli transcripts; organelle) was 66. For the same compound, the “Fold Enrichment” value (E. coli transcripts; oxidoreductase complex) was 2.47, the “transcripts significantly enriched” value (E. coli transcripts; oxidoreductase complex) was 47 and the “Fold Enrichment” value (E. coli transcripts; [9]) was 1.51. The “transcripts significantly enriched” value (E. coli transcripts; [9]) was 73, the “Fold Enrichment” value (E. coli transcripts; plasma membrane respirasome) was 2.99 and the “transcripts significantly enriched” value (E. coli transcripts; plasma membrane respirasome) was 21. For the same compound, the “Fold Enrichment” value (E. coli transcripts; [10]) was 2.99, the “transcripts significantly enriched” value (E. coli transcripts; [10]) was 14 and the “Fold Enrichment” value (E. coli transcripts; plasma membrane) was 1.19. For the same compound, the “transcripts significantly enriched” value (E. coli transcripts; plasma membrane) was 431, the “Fold Enrichment” value (E. coli transcripts; protein-containing complex) was 1.47 and the “transcripts significantly enriched” value (E. coli transcripts; protein-containing complex) was 258. The “Fold Enrichment” value (E. coli transcripts; respirasome) was 3.04, the “transcripts significantly enriched” value (E. coli transcripts; respirasome) was 24 and the “Fold Enrichment” value (E. coli transcripts; respiratory chain complex I) was 2.99. The “transcripts significantly enriched” value (E. coli transcripts; respiratory chain complex I) was 14, the “Fold Enrichment” value (E. coli transcripts; respiratory chain complex) was 3.01 and the “transcripts significantly enriched” value (E. coli transcripts; respiratory chain complex) was 22. For the same compound, the “Fold Enrichment” value (E. coli transcripts; ribonucleoprotein complex) was 2.61, the “transcripts significantly enriched” value (E. coli transcripts; ribonucleoprotein complex) was 45 and the “Fold Enrichment” value (E. coli transcripts; ribosomal subunit) was 2.64. For the same compound, the “transcripts significantly enriched” value (E. coli transcripts; ribosomal subunit) was 44, the “Fold Enrichment” value (E. coli transcripts; ribosome) was 2.51 and the “transcripts significantly enriched” value (E. coli transcripts; ribosome) was 47. The “Fold Enrichment” value (E. coli transcripts; small ribosomal subunit) was 2.60, the “transcripts significantly enriched” value (E. coli transcripts; small ribosomal subunit) was 19 and the “time to reduce persister cells to limit of detection” value [2] was 2 min.
For `C[C@@H]1Cc2ccc3ccccc3c2/C1=C1\c2ccccc2Sc2cc(NCCN)ccc21` (racemic) [MM 6, N^1-(9-(2-methyl-2,3-dihydro-1H-cyclopenta[a]naphthalen-1-ylidene)-9H-thioxanthen-3-yl)ethane-1,2-diamine], the “time to reduce persister cells to limit of detection” value [1] was 5 min.
